Laboratory results published in ChEMBL document CHEMBL1201862, “PubChem BioAssay data set” (2004).
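Dose response: 5 concentrations. Exposure: 48 h. Format: 96-well plates. Endpoint: linear interpolation; highest concentration if not reached. GI50: concentration for 50% inhibition of growth.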 Calls of active or inactive are those of the source. Rule as the data show it: active = GI50 up to about 1.1 µM and inactive = higher.

Experiments:
Assay in all cases: growth of human tumour cells (NCI), 48 h
786-0 = system: 786-0
A549 = system: A549
ACHN = system: ACHN
BT-549 = system: BT-549
CAKI-1 = system: CAKI-1
COLO 205 = system: COLO 205
DU-145 = system: DU-145
EKVX = system: EKVX
HCC 2998 = system: HCC 2998
HCT-15 = system: HCT-15
HOP-62 = system: HOP-62
HOP-92 = system: HOP-92
HT-29 = system: HT-29
Hs-578T = system: Hs-578T
IGROV-1 = system: IGROV-1
K562 = system: K562
KM12 = system: KM12
M14 = system: M14
MCF7 = system: MCF7
MDA-MB-231 = system: MDA-MB-231
MDA-MB-435 = system: MDA-MB-435
MDA-N = system: MDA-N
MOLT-4 = system: MOLT-4
Malme-3M = system: Malme-3M
NCI-H226 = system: NCI-H226
NCI-H23 = system: NCI-H23
NCI-H460 = system: NCI-H460
NCI-H522 = system: NCI-H522
NCI/ADR-RES = system: NCI/ADR-RES
OVCAR-3 = system: OVCAR-3
OVCAR-5 = system: OVCAR-5
OVCAR-8 = system: OVCAR-8
PC-3 = system: PC-3
RPMI-8226 = system: RPMI-8226
RXF 393 = system: RXF 393
SF-268 = system: SF-268
SF-295 = system: SF-295
SF-539 = system: SF-539
SK-MEL-28 = system: SK-MEL-28
SK-MEL-2 = system: SK-MEL-2
SK-MEL-5 = system: SK-MEL-5
SK-OV-3 = system: SK-OV-3
SN12C = system: SN12C
SNB-19 = system: SNB-19
SNB-75 = system: SNB-75
SR = system: SR
SW-620 = system: SW-620
T47D = system: T47D
TK-10 = system: TK-10
U-251 = system: U-251
UACC-257 = system: UACC-257
UACC-62 = system: UACC-62
UO-31 = system: UO-31
CCRF-CEM = system: CCRF-CEM
HCT-116 = system: HCT-116
HL-60 = system: HL-60
LOX IMVI = system: LOX IMVI
OVCAR-4 = system: OVCAR-4

CC(=O)OC(C(=O)NNC(=O)OC(C)(C)C)c1ccccc1 (configuration not stated)
GI50 (786-0): > 100 µM (inactive) | GI50 (A549): > 100 µM (inactive) | GI50 (ACHN): > 100 µM (inactive) | GI50 (BT-549): > 100 µM (inactive) | GI50 (CAKI-1): > 100 µM (inactive) | GI50 (COLO 205): > 100 µM (inactive) | GI50 (DU-145): > 100 µM (inactive) | GI50 (EKVX): > 100 µM (inactive) | GI50 (HCC 2998): > 100 µM (inactive) | GI50 (HCT-15): > 100 µM | GI50 (HOP-62): > 100 µM (inactive) | GI50 (HOP-92): > 100 µM (inactive) | GI50 (HT-29): > 100 µM (inactive) | GI50 (Hs-578T): > 100 µM (inactive) | GI50 (IGROV-1): > 100 µM (inactive) | GI50 (K562): > 100 µM (inactive) | GI50 (KM12): > 100 µM (inactive) | GI50 (M14): > 100 µM (inactive) | GI50 (MCF7): > 100 µM (inactive) | GI50 (MDA-MB-231): > 100 µM (inactive) | GI50 (MDA-MB-435): > 100 µM (inactive) | GI50 (MDA-N): > 100 µM (inactive) | GI50 (MOLT-4): > 100 µM (inactive) | GI50 (Malme-3M): > 100 µM (inactive) | GI50 (NCI-H226): > 100 µM (inactive) | GI50 (NCI-H23): > 100 µM (inactive) | GI50 (NCI-H460): > 100 µM (inactive) | GI50 (NCI-H522): > 100 µM (inactive) | GI50 (NCI/ADR-RES): > 100 µM (inactive) | GI50 (OVCAR-3): > 100 µM (inactive) | GI50 (OVCAR-5): > 100 µM (inactive) | GI50 (OVCAR-8): > 100 µM (inactive) | GI50 (PC-3): > 100 µM (inactive) | GI50 (RPMI-8226): > 100 µM (inactive) | GI50 (RXF 393): > 100 µM (inactive) | GI50 (SF-268): > 100 µM (inactive) | GI50 (SF-295): > 100 µM (inactive) | GI50 (SF-539): > 100 µM (inactive) | GI50 (SK-MEL-28): > 100 µM (inactive) | GI50 (SK-MEL-2): > 100 µM (inactive) | GI50 (SK-MEL-5): > 100 µM (inactive) | GI50 (SK-OV-3): > 100 µM (inactive) | GI50 (SN12C): > 100 µM (inactive) | GI50 (SNB-19): > 100 µM (inactive) | GI50 (SNB-75): > 100 µM (inactive) | GI50 (SR): > 100 µM (inactive) | GI50 (SW-620): > 100 µM (inactive) | GI50 (T47D): > 100 µM (inactive) | GI50 (TK-10): > 100 µM (inactive) | GI50 (U-251): > 100 µM (inactive) | GI50 (UACC-257): > 10 µM (inactive) | GI50 (UACC-62): > 100 µM (inactive) | GI50 (UO-31): > 100 µM (inactive)

O=C(Nc1ccccc1)OCCN=C1c2ccccc2CCc2ccccc21
GI50 (786-0): 32.6 µM (inactive) | GI50 (A549): 17.5 µM (inactive) | GI50 (ACHN): 15.4 µM (inactive) | GI50 (BT-549): 21 µM (inactive) | GI50 (CAKI-1): 18.5 µM (inactive) | GI50 (CCRF-CEM): 20.6 µM (inactive) | GI50 (COLO 205): 17.6 µM (inactive) | GI50 (DU-145): 24.5 µM (inactive) | GI50 (EKVX): 33.2 µM (inactive) | GI50 (HCC 2998): 27.5 µM (inactive) | GI50 (HCT-116): 14.6 µM (inactive) | GI50 (HCT-15): 15.7 µM | GI50 (HL-60): 13.8 µM (inactive) | GI50 (HOP-62): 19.7 µM (inactive) | GI50 (HT-29): 18.5 µM (inactive) | GI50 (Hs-578T): 18.5 µM (inactive) | GI50 (IGROV-1): 19.1 µM (inactive) | GI50 (K562): 15.1 µM (inactive) | GI50 (KM12): 14.3 µM (inactive) | GI50 (LOX IMVI): 20 µM (inactive) | GI50 (M14): 21.8 µM (inactive) | GI50 (MCF7): 24 µM (inactive) | GI50 (MDA-MB-231): 15.1 µM (inactive) | GI50 (MDA-MB-435): 22.6 µM (inactive) | GI50 (MDA-N): 19.6 µM (inactive) | GI50 (MOLT-4): 9.73 µM (inactive) | GI50 (Malme-3M): 22.5 µM (inactive) | GI50 (NCI-H226): 29.4 µM (inactive) | GI50 (NCI-H23): 55.2 µM (inactive) | GI50 (NCI-H460): 21.4 µM (inactive) | GI50 (NCI/ADR-RES): 19.7 µM (inactive) | GI50 (OVCAR-3): 13.6 µM (inactive) | GI50 (OVCAR-4): 21.9 µM (inactive) | GI50 (OVCAR-5): 28.7 µM (inactive) | GI50 (OVCAR-8): 31.5 µM (inactive) | GI50 (PC-3): 19.6 µM (inactive) | GI50 (RPMI-8226): 12.8 µM (inactive) | GI50 (RXF 393): 19.4 µM (inactive) | GI50 (SF-268): 25.6 µM (inactive) | GI50 (SF-295): 15.5 µM (inactive) | GI50 (SF-539): 18.2 µM (inactive) | GI50 (SK-MEL-28): 15.4 µM (inactive) | GI50 (SK-MEL-2): 15 µM (inactive) | GI50 (SK-MEL-5): 13.4 µM (inactive) | GI50 (SK-OV-3): 23.6 µM (inactive) | GI50 (SN12C): 17.3 µM (inactive) | GI50 (SNB-19): 14.8 µM (inactive) | GI50 (SNB-75): 11.9 µM (inactive) | GI50 (SR): 12.2 µM (inactive) | GI50 (SW-620): 35 µM (inactive) | GI50 (T47D): 15.3 µM (inactive) | GI50 (TK-10): 31.8 µM (inactive) | GI50 (U-251): 17.3 µM (inactive) | GI50 (UACC-257): 23.1 µM (inactive) | GI50 (UACC-62): 13.1 µM (inactive) | GI50 (UO-31): 17.3 µM (inactive)

CCN1CCC(O)(c2ccc(Oc3ccc(F)cc3)cc2)C(C(=O)c2ccc(Oc3ccc(F)cc3)cc2)C1 (configuration not stated)
GI50 (786-0): 11.6 µM (inactive) | GI50 (A549): 15 µM (inactive) | GI50 (ACHN): 13.8 µM (inactive) | GI50 (BT-549): 15.7 µM (inactive) | GI50 (CAKI-1): 13 µM (inactive) | GI50 (CCRF-CEM): 10.1 µM (inactive) | GI50 (COLO 205): 16.6 µM (inactive) | GI50 (DU-145): 12.2 µM (inactive) | GI50 (EKVX): 16.6 µM (inactive) | GI50 (HCC 2998): 11.4 µM (inactive) | GI50 (HCT-116): 13.6 µM (inactive) | GI50 (HCT-15): 11.5 µM | GI50 (HOP-62): 15.8 µM (inactive) | GI50 (HOP-92): 11.9 µM (inactive) | GI50 (HT-29): 10.6 µM (inactive) | GI50 (Hs-578T): 17.2 µM (inactive) | GI50 (IGROV-1): 11 µM (inactive) | GI50 (K562): 12.7 µM (inactive) | GI50 (KM12): 4.42 µM (inactive) | GI50 (LOX IMVI): 11.8 µM (inactive) | GI50 (M14): 16.9 µM (inactive) | GI50 (MCF7): 11.5 µM (inactive) | GI50 (MDA-MB-231): 13.2 µM (inactive) | GI50 (MDA-MB-435): 16.8 µM (inactive) | GI50 (MDA-N): 16.9 µM (inactive) | GI50 (MOLT-4): 14 µM (inactive) | GI50 (Malme-3M): 15.4 µM (inactive) | GI50 (NCI-H226): 13.6 µM (inactive) | GI50 (NCI-H23): 14.8 µM (inactive) | GI50 (NCI/ADR-RES): 10.3 µM (inactive) | GI50 (OVCAR-3): 15.2 µM (inactive) | GI50 (OVCAR-4): 15 µM (inactive) | GI50 (OVCAR-5): 15 µM (inactive) | GI50 (OVCAR-8): 15 µM (inactive) | GI50 (PC-3): 13.4 µM (inactive) | GI50 (RPMI-8226): 2.79 µM (inactive) | GI50 (RXF 393): 12.2 µM (inactive) | GI50 (SF-268): 16.9 µM (inactive) | GI50 (SF-295): 15.7 µM (inactive) | GI50 (SF-539): 18.5 µM (inactive) | GI50 (SK-MEL-28): 15.8 µM (inactive) | GI50 (SK-MEL-2): 17.2 µM (inactive) | GI50 (SK-OV-3): 17.8 µM (inactive) | GI50 (SN12C): 14.2 µM (inactive) | GI50 (SNB-19): 15.8 µM (inactive) | GI50 (SNB-75): 15.5 µM (inactive) | GI50 (SR): 2.33 µM (inactive) | GI50 (SW-620): 15.6 µM (inactive) | GI50 (T47D): 13.4 µM (inactive) | GI50 (TK-10): 11 µM (inactive) | GI50 (U-251): 16.2 µM (inactive) | GI50 (UACC-257): 15.8 µM (inactive) | GI50 (UACC-62): 14.8 µM (inactive)
